PubChem BioAssay AID1918949 (Molecular Pharmacology Branch, DTP, NCI, 2023)

System: K24384-001-R-PDC complex spheroid viability
Assay: Anticancer human tumor K24384-001-R-PDC patient-derived pancreatic adenocarcinoma cell line growth inhibition
Details: for IC50: curve of first compound; for viability, T/C: stronger effect = lower value; active means viability on the fitted dose curve at most 10% of control; inactive means the rest
Procedure, shortened: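 Multicellular complex spheroids of tumor cells with human endothelial cells (HUVEC) and mesenchymal stem cells; the LSD1 inhibitor iadademstat was combined with standard-of-care or investigational agents. Top concentration at or near clinical Cmax, half-log dilutions; final DMSO ≤0.25%.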
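Further: spheroids exposed to agents for seven days before luminescence viability reading.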
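Wherever viability, T/C is given: 100% = DMSO vehicle control viability.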

Nc1ccccc1NC(=O)c1ccc(CNC(=O)OCc2cccnc2)cc1 + NC1CC1c1ccc(-c2cccc(O)c2)cc1
358 nM: IC50 (second compound 1 µM)
389 nM: IC50 (second compound 0.316 µM)
312 nM: IC50 (second compound 10 µM)
328 nM: IC50 (second compound 3.16 µM)
430 nM: IC50 (second compound 0.1 µM)
active: viability, T/C (second compound 0.1 µM, first compound 0.949 µM) 9.69% | viability, T/C (second compound 0.1 µM, first compound 3 µM) 0.15% | viability, T/C (second compound 0.316 µM, first compound 0.949 µM) 7.2% | viability, T/C (second compound 0.316 µM, first compound 3 µM) 0.13% | viability, T/C (second compound 1 µM, first compound 0.949 µM) 5.63% | viability, T/C (second compound 1 µM, first compound 3 µM) 0.16% | viability, T/C (second compound 3.16 µM, first compound 0.949 µM) 3.27% | viability, T/C (second compound 3.16 µM, first compound 3 µM) 0.11% | viability, T/C (second compound 10 µM, first compound 0.949 µM) 3.08% | viability, T/C (second compound 10 µM, first compound 3 µM) 0.17%
inactive: viability, T/C (second compound 0.1 µM, first compound 0.00949 µM) 111% | viability, T/C (second compound 0.1 µM, first compound 0.03 µM) 113% | viability, T/C (second compound 0.1 µM, first compound 0.0949 µM) 118% | viability, T/C (second compound 0.1 µM, first compound 0.3 µM) 68.7% | viability, T/C (second compound 0.316 µM, first compound 0.00949 µM) 95.7% | viability, T/C (second compound 0.316 µM, first compound 0.03 µM) 121% | viability, T/C (second compound 0.316 µM, first compound 0.0949 µM) 115% | viability, T/C (second compound 0.316 µM, first compound 0.3 µM) 63.1% | viability, T/C (second compound 1 µM, first compound 0.00949 µM) 101% | viability, T/C (second compound 1 µM, first compound 0.03 µM) 112% | viability, T/C (second compound 1 µM, first compound 0.0949 µM) 115% | viability, T/C (second compound 1 µM, first compound 0.3 µM) 58.6% | viability, T/C (second compound 3.16 µM, first compound 0.00949 µM) 96.1% | viability, T/C (second compound 3.16 µM, first compound 0.03 µM) 117% | viability, T/C (second compound 3.16 µM, first compound 0.0949 µM) 109% | viability, T/C (second compound 3.16 µM, first compound 0.3 µM) 54% | viability, T/C (second compound 10 µM, first compound 0.00949 µM) 101% | viability, T/C (second compound 10 µM, first compound 0.03 µM) 110% | viability, T/C (second compound 10 µM, first compound 0.0949 µM) 95.6% | viability, T/C (second compound 10 µM, first compound 0.3 µM) 52.5%

O=C(c1cc(Cc2n[nH]c(=O)c3ccccc23)ccc1F)N1CCN(C(=O)C2CC2)CC1 + NC1CC1c1ccc(-c2cccc(O)c2)cc1
inactive: viability, T/C (second compound 0.1 µM, first compound 0.0316 µM) 96.3% | viability, T/C (second compound 0.1 µM, first compound 0.1 µM) 73.9% | viability, T/C (second compound 0.1 µM, first compound 0.316 µM) 84.4% | viability, T/C (second compound 0.1 µM, first compound 1 µM) 65.8% | viability, T/C (second compound 0.1 µM, first compound 3.16 µM) 56.2% | viability, T/C (second compound 0.1 µM, first compound 10 µM) 67.4% | viability, T/C (second compound 0.316 µM, first compound 0.0316 µM) 89.8% | viability, T/C (second compound 0.316 µM, first compound 0.1 µM) 80.5% | viability, T/C (second compound 0.316 µM, first compound 0.316 µM) 79.5% | viability, T/C (second compound 0.316 µM, first compound 1 µM) 77% | viability, T/C (second compound 0.316 µM, first compound 3.16 µM) 57.6% | viability, T/C (second compound 0.316 µM, first compound 10 µM) 66.1% | viability, T/C (second compound 1 µM, first compound 0.0316 µM) 78.7% | viability, T/C (second compound 1 µM, first compound 0.1 µM) 73.5% | viability, T/C (second compound 1 µM, first compound 0.316 µM) 72.6% | viability, T/C (second compound 1 µM, first compound 1 µM) 81% | viability, T/C (second compound 1 µM, first compound 3.16 µM) 66.6% | viability, T/C (second compound 1 µM, first compound 10 µM) 70.8% | viability, T/C (second compound 3.16 µM, first compound 0.0316 µM) 78.7% | viability, T/C (second compound 3.16 µM, first compound 0.1 µM) 77.3% | viability, T/C (second compound 3.16 µM, first compound 0.316 µM) 83.8% | viability, T/C (second compound 3.16 µM, first compound 1 µM) 72.2% | viability, T/C (second compound 3.16 µM, first compound 3.16 µM) 68% | viability, T/C (second compound 3.16 µM, first compound 10 µM) 59.8% | viability, T/C (second compound 10 µM, first compound 0.0316 µM) 86.6% | viability, T/C (second compound 10 µM, first compound 0.1 µM) 81.5% | viability, T/C (second compound 10 µM, first compound 0.316 µM) 76.5% | viability, T/C (second compound 10 µM, first compound 1 µM) 87.4% | viability, T/C (second compound 10 µM, first compound 3.16 µM) 54.5% | viability, T/C (second compound 10 µM, first compound 10 µM) 62.3%
> 10000 nM: IC50 (second compound 0.1 µM) | IC50 (second compound 0.316 µM) | IC50 (second compound 1 µM) | IC50 (second compound 3.16 µM) | IC50 (second compound 10 µM)
